Experiments:
[1] = tested on: Platelet Agglutination of Rats; assay: Inhibitory effect on collagen-induced platelet agglutination of rats in vitro (platelet rich plasma); assay type: cell-based; details: rat platelet rich plasma, read-out: in vitro Inhibitory ratio (platelet agglutination); for inhibition at 0.3 µM: 3 × 10^-7 M; for inhibition at 1 µM: 10^-6 M; for inhibition at 0.1 µM: 10^-7 M
Protocol: Inhibitory Effects of 3,6-Disubstituted Pyridazine Derivatives on Platelet Agglutination of Rats […]
Arterial blood of a rat was centrifuged to obtain platelet rich plasma. […] of a medicinal solution was added to 250 μl of the platelet rich plasma, and the mixture was incubated for 2 minutes. Thereafter, 3 μg of collagen (produced by Hormon-Chemie) was added to the mixture as a platelet agglutination inducer, and changes in the platelet agglutination were observed and recorded by a 2-channel platelet agglutination degree measuring instrument (Model DP247E, produced by Sienco) for 10 minutes.
(§1) The platelet agglutination inhibitory ratio was calculated from the following formula:
Inhibitory ratio=(Tc-Ts)/Tc×100
Tc: Agglutination degree when only a solvent was added
Ts: Agglutination degree when a medicinal solution was added

[2] = tested on: Platelet Agglutination of Rats; assay: Inhibitory effect on collagen-induced platelet agglutination of rats after oral administration (ex vivo); assay type: in vivo, rat (male Wistar-ST); details: 1 mg/kg p.o., blood collected one hour after; collagen 7 to 10 μg/ml; rat
Protocol: Inhibitory Effects of 3,6-Disubstituted Pyridazine Derivatives on Platelet Agglutination of Rats In Vivo (Oral Administration)
A rat group consisting of 8 male Wistar-ST rats each weighing about 250 g was tested. Each compound was suspended in aqueous 1% tragacanth solution. The thus-prepared suspension was orally administered to each rat at a dose of 4 ml/kg. One hour after, blood was collected from each carotid artery through a cannula into a plastic test tube containing 3.8% sodium citrate in amount corresponding to 1/10 of the volume of the test tube) and the mixture was stirred. Thereafter, the mixture was centrifuged at 200×g rpm for 15 minutes, and the supernatant liquid was taken as platelet rich plasma (PRP). The residue was further centrifuged at 2000×g rpm for 15 minutes, and the supernatant liquid was collected as platelet poor plasma (PPP) and used for measurement of the platelet agglutinating ability. The platelet agglutinating ability was measured by a 2-channel platelet agglutination degree measuring instrument (Model DP247E, produced by Sienco), and recorded by a 2-pen recorder.
Collagen (produced by Hormon-Chemie) having a concentration of 7 to 10 μg/ml was used as a platelet agglutination inducer.
as §1
Inhibitory ratio=(A-B)/A×100 (%)
A: Agglutination degree in the group (controlled group) to which only a solution of 1% tragacanth was administered
B: Agglutination degree in the group to which the tragacanth solution containing a compound was administered

[3] = tested on: Myocardial Infarction of a Rat; assay: Effect on myocardial infarction of a rat induced by ligation of the left coronary artery; assay type: in vivo, rat (male SD); details: oral, 60 minutes before ligation
Protocol: Effects of 3,6-Disubstituted Pyridazine Derivatives on the Myocardial Infarction of a Rat Induced by the Ligation of the Left Coronary Artery
A rat group consisting of 8 male SD rats each weighing 200 to 250 g was tested. Myocardial infarction was produced in accordance with a method of Selye et al. That is, each rat was fixed on an operating boar on its back, and an about 1.5 cm incision had been made through the skin along the left sternal border under weak etherization. The pericardium was broken to exteriorize the heart, and the left coronary artery was ligated at a position of 1 to 2 mm apart from the origin thereof with black blade 4-O silk suture (produced by Hama Ika Kogyo). Thereafter, the heart was restored to its original position and the chest was sutured. The air in the throacic cavity was discharged by pressing both side breast portions. After the resumption of respiration, the ST elevation in the standard limb lead II by an electrocardiograph (Model ECG-6601, produced by Nihon Koden Co.,). 24 hours after the ligation, blood was collected from the aortas at the abdomen. A fatal amount of blood was then drawn from each rat. The heart was taken out, and a tissue slice (about 2 mm thick) having an annular cross section was cut from the central portion of the heart. The tissue slice was incubated in 20 ml of 1% TTC (tryphenyl tetrazolium chloride, produced by Wako Pure Chemical Industries Limited) dissolved in 0.09M of phosphoric acid buffer (pH 8.6) at 37° C. for 20 minutes while shielding light. The tissue slice was photographed by a stereoscopic microscope to produce a color slide. The image of the tissue slice was projected on a wall surface from the color slide. The cut surface, the infarcted portion (portion not dyed with TTC) and the non-infarcted portion (portion dyed with TTC) were traced on a sheet, and the area of the infarcted portion in the whole cross section was calculated. The medicine was suspended in an aqueous 1% tragacanth solution and orally administered to each rat 60 minutes before the ligation of the left coronary artery.
The myocardial infarction inhibitory ratio was calculated from the following formula: [formula] A: Infarction degree in the group (controlled group) to which only a solution of 1% tragacanth was administered
B: Infarction degree in the group to which the tragacanth solution containing a medicine was administered

SMILES	inhibition at 0.3 µM [1] [%]	inhibition at 1 µM [1] [%]	inhibition at 0.1 µM [1] [%]	other results
c1ccc2c(C3CCCCC3)nnc(NC3CCCCC3)c2c1 [Example 3]	18.4	100	–	–
CCC(Nc1nnc(-c2ccccc2)c2ccsc12)c1ccccc1 (centres unmarked) [Example 84]	24.5	61.6	–	–
C[C@@H](Nc1nnc(-c2ccsc2)c2ccccc12)c1ccccc1 [Example 39, (R)-1-(α-phenylethylamino)-4-(3-thienyl) phthalazine]	–	–	94.9	–
C[C@@H](Nc1nnc(-c2ccccc2)c2sccc12)c1ccccc1 [Example 70]	–	–	95.2	–
Cc1ccccc1-c1nnc(N[C@H](C)c2ccccc2)c2ccsc12 [Example 79]	6.6	94.3	–	–
C[C@@H](Nc1nnc(-c2ccccc2)c2sccc12)C1CCCCC1 [Example 75]	–	–	94.5	ex vivo Inhibitory ratio (platelet agglutination) [2]: 50.2%
C[C@@H](Nc1nnc(-c2ccccc2)c2occc12)C1CCCCC1 [Example 95, (R)-4-(1-cyclohexylethylamino)-7-phenyl-furano[2,3-d]pyridazine]	100	–	94.4	ex vivo Inhibitory ratio (platelet agglutination) [2]: 63.1%
CC1(C)CC(Nc2nnc(C3CCCCC3)c3ccccc23)CC(C)(C)C1 [Example 5]	–	51.8	–	–
CC(Nc1nnc(-c2ccccc2)c2sccc12)c1ccccc1Cl (centres unmarked) [Example 72]	95.3	–	5.1	–
CC(=O)Oc1ccccc1C(=O)O [Aspirin, reference compound]	–	–	–	percentage of inhibition (myocardial infarction) ([3]; 100 mg/kg): 10.7 percentage
c1coc(-c2nnc(-n3ccnc3)c3ccccc23)c1 [Example 46, 1-(1-imidazolyl)-4-(2-furyl)phthalazine]	40.6	66.5	–	–
CCCCC(Nc1nnc(-c2ccccc2)c2ccsc12)c1ccccc1 (centres unmarked) [Example 85]	–	40.7	–	–
C[C@@H](Nc1nnc(-c2ccccc2)c2ccsc12)c1ccccc1 [Example 82]	–	–	93.3	ex vivo Inhibitory ratio (platelet agglutination) [2]: 37.9%
C[C@@H](Nc1nnc(-c2ccccc2)c2ccccc12)C1CCCCC1 [Example 60, (R)-1-(1-cyclohexylethylamino)-4-phenylphthalazine]	–	–	94.3	percentage of inhibition (myocardial infarction) ([3]; 1 mg/kg): 68.5 percentage; percentage of inhibition (myocardial infarction) ([3]; 3 mg/kg): 82.2 percentage; ex vivo Inhibitory ratio (platelet agglutination) [2]: 51.3%
C[C@H](Nc1nnc(-c2ccccc2)c2ccsc12)c1ccccc1 [Example 83]	94.3	–	–	–
C[C@@H](Nc1nnc(-c2cccs2)c2sccc12)c1ccccc1 [Example 69, (R)-4-(1-phenylethylamino)-7-(2-thienyl) thieno[2 3-d]pyridazine]	95.2	–	50.8	–
CC(Nc1nnc(-c2ccccc2)c2ccsc12)c1ccccc1Cl (centres unmarked) [Example 86]	78.2	90.2	–	–
C[C@@H](Nc1nnc(-c2ccco2)c2ccccc12)C1CCCCC1 [Example 45, (R)-1-(α-cyclohexylethylamino)-4-(2-furyl)phthalazine]	–	–	98.6	–
C[C@@H](Nc1nnc(C2CCCCC2)c2ccccc12)c1ccccc1 [Example 1, (R)-1-(α-phenylethylamino)-4-cyclohexylphthalazine]	97.1	–	89.2	–
Cc1cccc(C(C)Nc2nnc(-c3ccccc3)c3sccc23)c1 (centres unmarked) [Example 73]	95.6	–	42.8	–
COc1ccccc1C(C)Nc1nnc(-c2ccccc2)c2ccsc12 (centres unmarked) [Example 89]	49.5	95.4	–	–
CCC(Nc1nnc(-c2ccccc2)c2sccc12)c1ccccc1 (centres unmarked) [Example 71]	98.6	–	30.7	–
Cc1csc(-c2nnc(N[C@H](C)c3ccccc3)c3ccccc23)c1 [Example 42, (R)-1-(α-phenylethylamino)-4-(4-methyl-2-thienyl)phthalazine]	–	–	96.3	–
Clc1ccccc1CN1CCc2sccc2C1 [Ticlopidine, reference compound]	–	–	–	percentage of inhibition (myocardial infarction) ([3]; 30 mg/kg): 10.1 percentage
COc1ccccc1C(C)Nc1nnc(-c2ccccc2)c2sccc12 (centres unmarked) [Example 74]	93.5	–	73.4	–
c1ccc(-c2nnc(NC3CCCCC3)c3ccsc23)cc1 [Example 80]	–	–	100	–
C[C@H](Nc1nnc(-c2ccccc2)c2ccccc12)C1CCCCC1 [Example 61]	94.4	–	30.2	–
CCC(Nc1nnc(C2CCCCC2)c2ccccc12)c1ccccc1 (centres unmarked) [Example 2]	96	–	56	–
C[C@@H](Nc1nnc(-c2ccccc2)c2ccsc12)C1CCCCC1 [Example 90]	94.4	–	32.7	ex vivo Inhibitory ratio (platelet agglutination) [2]: 60.6%
Cc1cccc(C(C)Nc2nnc(-c3ccccc3)c3ccsc23)c1 (centres unmarked) [Example 87]	–	18	–	–
